Here are results for one molecule from patent US20100120703A1, “COMPOSITIONS AND METHODS FOR TREATING CANCER” (priority 2007, published 2010).

The test system of assay [1] is HepG2 cells. Kind of assay: Neutral red cell viability assay. It is filed as cell-based. The conditions noted are these: Homo sapiens. The source says:
The neutral red (NR) cytotoxicity assay is a chemosensitivity assay for measuring cell survival/viability, based on the ability of viable cells to incorporate and bind neutral red, a supravital dye. NR is a weak cationic dye that readily penetrates cell membranes by non-ionic diffusion, accumulating intracellularly in lysosomes, where it binds with anionic sites in the lysosomal matrix. Alterations of the cell surface or the sensitive lysosomal membrane lead to lysosomal fragility and other changes that gradually become irreversible. Such changes brought about by the action of xenobiotics result in a decreased uptake and binding of NR. It is thus possible to distinguish between viable, damaged, or dead cells. (Babich, H et al, 1990)
Three different cell lines HepG2, WRL-68 and Clone 9 cell lines were used in the experiment. HepG2 is a human hepatoblastoma cell line. It is a well known cell model in anti-HCC studies (Alshatwi A A, et al, 2006). WRL-68 is a human normal liver embryo cell line that has a morphologic structure similar to hepatocytes and hepatic primary cultures (Gutierrez-Ruiz, et al, 1994). This cell line was used as the control. Clone 9 is the rat Sprague Dawley (SD) liver normal cell line. In the in vivo studies, sinigrin (SIN) would be applied to the SD rat animal model. The employment of this cell line in the cell viability study was to test if SIN would be toxic in the rat animal model.
HepG2, WRL-68 and Clone 9 cells were grown in complete culture medium (RPMI or DMEM), trypsinized and washed. Ten thousand cells of each cell type were seeded in 96-well plates. After 24 hours of pre-incubation, cells were treated with different concentrations of SIN and incubated for 72 hours. After incubation, cells were harvested and washed twice with 1×PBS buffer. Fifty microliters of Neutral Red solution were added to each well. The whole plate was placed into an incubator at 37° C. with 5% CO2. After incubation for 1 hour, the plate was washed twice with 1×PBS buffer, and completely dried in a 60° C. oven overnight. […] The color was measured at OD540nm.

The subject of assay [2] is Sprague Dawley (SD) rats. Put plainly: Serum AST/ALT assay, promotion stage. Particulars: promotion stage (FIG. 10), 15 mg/kg oral daily. It is filed as in vivo, rat. From the text: In the promotion stage experiment, rats in the negative control group received weekly intraperitoneal (i.p.) injection of DMSO for the first 2 weeks and then Corn Oil for the rest of the schedule. Rats in the positive control and SIN-treatment groups both received weekly intraperitoneal (i.p.) injection of the carcinogen DEN for the first 2 weeks and then promoter, Carbon Tetrachloride (CCl4) for the rest of the schedule. Two weeks of fasting were inserted between the initiator carcinogen treatment and the promoter CCl4 treatment. During the fasting period of 2 weeks, rats were fasted for 5 days, followed by a 2 day feeding, and another 5 days of fasting. Water was given ad libitum. Negative and positive control groups received oral treatment of water once a day after fasting. Sinigrin with dosage 15 mg/kg was administered orally to the treatment group daily for 28 weeks after fasting. […]
(§1) The serum AST activity assay was measured by a Stanbio AST (UV-Rate) kit. […] Absorbance was measured at OD 340 nm. After incubation for 1 minute, a reading was taken and the reading at this point was counted as time zero. Readings were then taken at 30 second interval for 3 minutes. The change of absorbance per minute was calculated and the AST activity was calculated by the formula
(§2) The ALT assay was measured by a Stanbio […]. […]

For assay [3], the system named is Sprague Dawley (SD) rats. Put plainly: DEN/CCl4-induced hepatoma in rats, progression stage: liver observation and weight. The conditions noted are these: 15 mg/kg oral daily for 24 weeks. Format: in vivo, rat. The source says:
The effect of SIN on progression stage of cancer development was studied. FIG. 20 summarized the protocol applied to rats. The amounts of rats and grouping method were all the same as in the promotion stage experiment.
Rats in the negative control group received weekly intraperitoneal (i.p.) injection of DMSO for the first 2 weeks and then Corn Oil for 28 weeks. Rats in the positive control and SIN-treatment groups both received weekly intraperitoneal (i.p.) injection of DEN for the first 2 weeks and then CCl4 for 28 weeks. Two weeks of fasting were inserted between DEN treatment and CCl4 treatment. Starting from 33rd week, negative and positive control groups received oral administration of water once a day. Sinigrin with dosage 15 mg/kg was administered orally to the SIN-treatment group daily for 24 weeks. After treatment, the rats were killed. Blood and liver were collected and processed as described in the foregoing examples.

The test system of assay [4] is Sprague Dawley (SD) rats. Put plainly: Serum AST/ALT assay, progression stage. Format: in vivo, rat. As to the method:
ALT (Alanine aminotransferase) and AST (Aspartate aminotransferase) are two enzymes that are specifically located in the liver. These two enzymes normally distribute little in blood serum. When liver damage occurs, the hepatocytes break and these two enzymes are released into the blood. An AST/ALT assay was used to diagnose liver damage. Rat blood was collected in a 13 ml BD PLUS-SST II serum vacutainer and allowed to stand for 20 minutes on ice to coagulate. The vacutainer was then centrifuged at 3,500 rpm for 15 minutes. The upper layer serum was collected. The AST/ALT assay was performed within 2 days to minimize the loss of the enzymes.
as §1, with “kit. Fifteen milliliters of ddH2O were added into one bottle of the reagent in the kit and mixed thoroughly according to the kit protocol. One milliliter of the reagent was incubated at 37° C. for at least 10 minutes for each reaction.” for “kit.”
as §2

In assay [5] the test system is rats previously treated with dimethylhydrazine (DMH). Particulars: cited from earlier work.
The mark [6] stands for this setting: HepG2, 72 h, read-out: viability of HepG2 cells.

Each structure is given as a SMILES string.

A word on the viability: it is the share of living cells, or the viability signal relative to a control. In general, IC50 refers to the concentration that inhibits the measured activity by half. A lower IC50 goes with inhibition by little substance. Turning to `C=CC/C(=N/OS(=O)(=O)[O-])S[C@@H]1OC(CO)[C@@H](O)C(O)C1O.[K+]` (some centres unmarked) [SIN, sinigrin], in assay [1] (setting [6]), the viability at 25 µM was around 70% and the viability at 1000 µM was around 35%. The IC50 in assay [1] (HepG2, 72 hours, neutral red) was below 250 µM. Moreover, in assay [2], the “rat serum ALT level” value is “levels similar to those in the negative control” and the “rat serum AST level” value was “levels similar to those in the negative control”. Further, in assay [3], the “percentage of liver weight and liver weight index vs negative group” value is on record as “only slightly higher”; the “visible tumors on liver (direct observation)” value was “few visible tumors”. For the same molecule, the “rat serum ALT level” value in assay [4] (positive control 215% of negative control) is on record as “levels similar to those in the negative control”. In addition, the “rat serum AST level” value in assay [4] (positive control 265% of negative control) is reported as “levels similar to those in the negative control”. Also, the “apoptosis in colonic tissue vs DMH only” value in assay [5] (DMH treated rats) was “higher level of apoptosis”. The “aberrant crypt foci in colonic tissue” value in assay [5] (sinigrin administered after DMH) was “suppresses induction of aberrant crypt foci”.
